In data set [1] the target is T1, GDNF family receptor alpha-like (Homo sapiens, UniProt Q6UXV0).
T1 sequence (Q6UXV0 whole entry): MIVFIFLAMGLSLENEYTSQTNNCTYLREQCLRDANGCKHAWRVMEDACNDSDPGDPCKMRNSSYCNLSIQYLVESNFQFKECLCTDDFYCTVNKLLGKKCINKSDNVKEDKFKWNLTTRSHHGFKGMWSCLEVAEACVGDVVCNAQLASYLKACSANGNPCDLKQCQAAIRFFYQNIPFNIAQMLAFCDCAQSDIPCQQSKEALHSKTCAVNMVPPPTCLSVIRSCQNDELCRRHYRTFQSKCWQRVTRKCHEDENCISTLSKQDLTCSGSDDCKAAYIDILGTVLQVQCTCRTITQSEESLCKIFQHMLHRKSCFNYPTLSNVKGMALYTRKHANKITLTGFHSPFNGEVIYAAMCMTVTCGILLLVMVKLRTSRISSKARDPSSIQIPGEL
The experiment in a line: Binding affinity to C-terminal polyhis-tagged recombinant human GFRAL (19 to 351 residues) expressed in HEK293 cells assessed as dissociation constant with increasing enzyme concentration by SPR analysis.

The test system of data set [2] is Rattus norvegicus. The experiment in a line: Effect on pica behaviour in Sprague-Dawley rat assessed as food intake at 100 nmol/kg, IP measured for 24 hrs. The format is functional.
In data set [3] the target is T1, GDNF family receptor alpha-like. The experiment in a line: Binding affinity to C-terminal polyhis-tagged recombinant human GFRAL (19 to 351 residues) expressed in HEK293 cells assessed as dissociation constant by SPR analysis.
Data set [4] can be described thus: Toxicity in Sprague-Dawley rat assessed as food intake at 30 to 100 nmol/kg, IP measured for 24 hrs. The settings on record: in vivo, dose 30-100 nmol/kg.
The nature of data set [5]: Toxicity in Sprague-Dawley rat assessed as kaolin intake at 100 nmol/kg, IP measured for 24 hrs. As to conditions: in vivo.
Data set [6] relates to Rattus norvegicus. The experiment in a line: Effect on pica behaviour in Sprague-Dawley rat assessed as reduction in GDF-15-induced kaolin intake at 100 nmol/kg pretreated intraperitoneally followed by GDF-15 treatment measured for 24 hrs. In kind it is functional. As to conditions: route ip.
Data set [7] in a line: Toxicity in Sprague-Dawley rat assessed as drug tolerance at 100 nmol/kg, IP measured for 24 hrs. The settings on record: in vivo.
For data set [8], the system named is Rattus norvegicus. The experiment in a line: Effect on pica behaviour in Sprague-Dawley rat assessed as reduction in cisplatin-induced anorexia at 100 nmol/kg, IP bid measured for 24 hrs in presence of Ondansetron. In kind it is functional.
Data set [9] deals with Rattus norvegicus. As to the kind of experiment: Effect on pica behaviour in Sprague-Dawley rat assessed as food intake at 100 nmol/kg, IP measured for 24 hrs in presence of Ondansetron. The format is functional.
In data set [10] the test system is Rattus norvegicus. As to the kind of experiment: Effect on pica behaviour in Sprague-Dawley rat assessed as kaolin intake at 100 nmol/kg, IP measured for 24 hrs. In kind it is functional.
Data set [11] in a line: Toxicity in Sprague-Dawley rat assessed as kaolin intake at 30 to 100 nmol/kg, IP measured for 24 hrs. As to conditions: in vivo, dose 30-100 nmol/kg.
For data set [12], the system named is Rattus norvegicus. As to the kind of experiment: Effect on pica behaviour in Sprague-Dawley rat assessed as reduction in cisplatin-induced kaolin intake at 100 nmol/kg, IP bid measured for 24 hrs. The format is functional.
The nature of data set [13]: Toxicity in Sprague-Dawley rat assessed as drug tolerance at 100 nmol/kg, IP measured for 24 hrs in presence of Ondansetron. The settings on record: in vivo.
The test system of data set [14] is Rattus norvegicus. The experiment in a line: Effect on pica behaviour in Sprague-Dawley rat assessed as reduction in GDF-15-induced kaolin intake pretreated intracerebroventricularly followed by GDF-15 treatment measured for 24 hrs. In kind it is functional. As to conditions: dose 300-3000 pmol, route icv.
Data set [15] has as its system Rattus norvegicus. As to the kind of experiment: Effect on GDF-15-induced anorexia in Sprague-Dawley rat at 30 to 100 nmol/kg pretreated intraperitoneally followed by GDF-15 treatment measured for 24 hrs. In kind it is functional. The settings on record: dose 30-100 nmol/kg, route ip.
The nature of data set [16]: Toxicity in Sprague-Dawley rat assessed as kaolin intake at 300 to 3000 pmol, ICV measured for 24 hrs. As to conditions: in vivo, icv_or_intrathecal, dose 300-3000 pmol.
Data set [17] in a line: Toxicity in Sprague-Dawley rat assessed as food intake at 300 to 3000 pmol, ICV measured for 24 hrs. The settings on record: in vivo, icv_or_intrathecal, dose 300-3000 pmol.
Data set [18] deals with Rattus norvegicus. As to the kind of experiment: Effect on pica behaviour in Sprague-Dawley rat assessed as reduction in cisplatin-induced kaolin intake at 100 nmol/kg, IP pretreated for 15 mins followed by cisplatin treatment measured for 6 hrs. As to conditions: time 6.25 hrs. The format is functional.
For data set [19], the system named is Rattus norvegicus. As to the kind of experiment: Effect on pica behaviour in Sprague-Dawley rat assessed as reduction in cisplatin-induced kaolin intake at 2 mg/kg, IP measured for 24 hrs. In kind it is functional, organism-based.
The nature of data set [20]: Toxicity in Sprague-Dawley rat assessed as food intake at 100 nmol/kg, IP measured for 24 hrs. The settings on record: in vivo.
For data set [21], the system named is Rattus norvegicus. As to the kind of experiment: Effect on GDF-15-induced anorexia in Sprague-Dawley rat at 300 to 3000 pmol pre-treated intracerebroventricularly followed by GDF-15 treatment measured for 24 hrs. The format is functional. As to conditions: dose 300-3000 pmol, route icv.
A short description of data set [22]: Toxicity in cisplatin-induced nausea and vomiting Sprague-Dawley rat model assessed as additive effect at 100 nmol/kg, IP bid measured for 24 hrs in presence of Ondansetron. The settings on record: in vivo.
Data set [23] deals with Rattus norvegicus. The experiment in a line: Effect on pica behaviour in Sprague-Dawley rat assessed as kaolin intake at 100 nmol/kg, IP measured for 24 hrs in presence of Ondansetron. In kind it is functional.
Data set [24] concerns the target T1, GDNF family receptor alpha-like. As to the kind of experiment: Binding affinity to C-terminal polyhis-tagged recombinant human GFRAL (19 to 351 residues) expressed in HEK293 cells assessed as dissociation constant by flow cytometric analysis. In kind it is cell-based. (In general: A flow cytometer gives signals particle by particle.)

Structures are written as SMILES. Calls of active or inactive are those of the source. No cut-off for these calls is given here. Numbered stars: 1 amine (or outer) side, 2 acyl side, 3 side chain; on linkers, the order of the positions; unused ones are H or OH. Square brackets hold non-standard residues; d marks the D form. Side chains are listed from the residue outwards. Peptide text beside a SMILES is read from it. * marks the point of attachment. X4 = CN1/C(=C/C=C/C=C/C2=[N+](CCCCCC(=O)*)c3ccc(S(=O)(=O)[O-])cc3C2(C)C)C(C)(C)c2cc(S(=O)(=O)O)ccc21; X3 = C[C@@H](O)[C@@H](C(=O)[*:2])N(CCCn1nnc2c1-c1ccccc1CN([*:3])c1ccccc1-2)[*:1]; Biotin = O=C1N[C@H]2[C@H](CS[C@H]2CCCCC(=O)*)N1; GABA = NCCCC(=O)O

In general, Kd refers to the constant that tells how readily two partners part at equilibrium. Take `CC[C@H](C)[C@H](NC(=O)[C@H](CC(C)C)NC(=O)[C@H](CCC(=O)O)NC(=O)[C@H](CCC(=O)O)NC(=O)[C@H](CCCCN)NC(=O)[C@@H](NC(=O)CCCC[C@@H]1SC[C@@H]2NC(=O)N[C@@H]21)[C@@H](C)O)C(=O)N[C@@H](Cc1c[nH]cn1)C(=O)N[C@@H](C)C(=O)N[C@@H](Cc1c[nH]cn1)C(=O)N[C@@H](C)C(=O)N[C@@H](CC(=O)O)C(=O)N1CCC[C@H]1C(=O)N[C@@H](CCSC)C(=O)N[C@H](C(=O)N[C@@H](CC(C)C)C(=O)N[C@H](C(=O)N[C@@H](CCC(N)=O)C(=O)N[C@@H](CCCCN)C(=O)N[C@H](C(=O)N[C@@H](CC(=O)O)C(=O)N[C@H](C(=O)NCC(=O)N[C@H](C(=O)N[C@@H](CO)C(=O)N[C@@H](CC(C)C)C(=O)N[C@@H](CCC(N)=O)C(=O)N[C@H](C(=O)N[C@@H](Cc1ccc(O)cc1)C(=O)N[C@@H](CC(=O)O)C(=O)O)[C@@H](C)O)C(C)C)[C@@H](C)O)[C@@H](C)O)[C@@H](C)CC)C(C)C` (Biotin-TKEELIHAHADPMVLIQKTDTGVSLQTYD-OH): the Kd in [1] turned out to be 74.1 nM.
In the case of `CC[C@H](C)[C@H](NC(=O)[C@H](CC(C)C)NC(=O)[C@H](CCC(=O)O)NC(=O)[C@H](CCC(=O)O)NC(=O)[C@H](CCCCN)NC(=O)[C@@H](N)[C@@H](C)O)C(=O)N[C@@H](Cc1c[nH]cn1)C(=O)N[C@@H](C)C(=O)N[C@@H](Cc1c[nH]cn1)C(=O)N[C@@H](C)C(=O)N[C@@H](CC(=O)O)C(=O)N1CCC[C@H]1C(=O)N[C@@H](CCSC)C(=O)N[C@H](C(=O)N[C@@H](CC(C)C)C(=O)N[C@H](C(=O)N[C@@H](CCC(N)=O)C(=O)N[C@@H](CCCCN)C(=O)N[C@H](C(=O)N[C@@H](CC(=O)O)C(=O)N[C@H](C(=O)NCC(=O)N[C@H](C(=O)N[C@@H](CO)C(=O)N[C@@H](CC(C)C)C(=O)N[C@@H](CCC(N)=O)C(=O)N[C@H](C(=O)N[C@@H](Cc1ccc(O)cc1)C(=O)N[C@@H](CC(=O)O)C(=O)O)[C@@H](C)O)C(C)C)[C@@H](C)O)[C@@H](C)O)[C@@H](C)CC)C(C)C` (H-TKEELIHAHADPMVLIQKTDTGVSLQTYD-OH), the result in the data set with Rattus norvegicus [2], in the data set with Rattus norvegicus [9], in the data set with Rattus norvegicus [10], in the data set with Rattus norvegicus [15], in the data set on Rattus norvegicus [21] and in the data set with Rattus norvegicus [23] was inactive. In addition, in [3], the Kd stood at 179000 nM. Moreover, the Activity result in data set [4], in data set [5], in data set [7], in data set [11], in data set [13] and in data set [16] was “Non-Toxic” in each case. The Activity entry in [17], in data set [20] and in data set [22] was “Non-Toxic” throughout. Besides, the outcome in the data set on Rattus norvegicus [6], with Rattus norvegicus [8], in the data set on Rattus norvegicus [12], with Rattus norvegicus [14], in the data set with Rattus norvegicus [18] and in the data set with Rattus norvegicus [19] was Active.
For `CC[C@H](C)[C@H](NC(=O)[C@H](CC(C)C)NC(=O)[C@H](CCC(=O)O)NC(=O)[C@H](CCC(=O)O)NC(=O)[C@H](CCCCN)NC(=O)[C@@H](NCCCn1nnc2c1-c1ccccc1CN(C(=O)CCCNC(=O)CCCCC[N+]1=C(/C=C/C=C/C=C3/N(C)c4ccc(S(=O)(=O)O)cc4C3(C)C)C(C)(C)c3cc(S(=O)(=O)[O-])ccc31)c1ccccc1-2)[C@@H](C)O)C(=O)N[C@@H](Cc1c[nH]cn1)C(=O)N[C@@H](C)C(=O)N[C@@H](Cc1c[nH]cn1)C(=O)N[C@@H](C)C(=O)N[C@@H](CC(=O)O)C(=O)N1CCC[C@H]1C(=O)N[C@@H](CCSC)C(=O)N[C@H](C(=O)N[C@@H](CC(C)C)C(=O)N[C@H](C(=O)N[C@@H](CCC(N)=O)C(=O)N[C@@H](CCCCN)C(=O)N[C@H](C(=O)N[C@@H](CC(=O)O)C(=O)N[C@H](C(=O)NCC(=O)N[C@H](C(=O)N[C@@H](CO)C(=O)N[C@@H](CC(C)C)C(=O)N[C@@H](CCC(N)=O)C(=O)N[C@H](C(=O)N[C@@H](Cc1ccc(O)cc1)C(=O)N[C@@H](CC(=O)O)C(=O)O)[C@@H](C)O)C(C)C)[C@@H](C)O)[C@@H](C)O)[C@@H](C)CC)C(C)C` (H-[X3]([GABA-X4])KEELIHAHADPMVLIQKTDTGVSLQTYD-OH), in data set [24], the Kd was 8.98 nM.

Source of the values: ChEMBL document CHEMBL5360631, “Creation of a Peptide Antagonist of the GFRAL-RET Receptor Complex for the Treatment of GDF15-Induced Malaise” (J Med Chem, 2023).
